The text below walks through data of paper PMC8728441, “Biosynthesis of the redox cofactor mycofactocin is controlled by the transcriptional regulator MftR and induced by long-chain acyl-CoA species” (The Journal of Biological Chemistry, 2021).

One test concerns the target MftR (WT) (Mycolicibacterium smegmatis, UniProt A0QSB5). The test can be described thus: ITC binding of acyl-CoAs to MftR. Details: species or system Mycobacterium smegmatis mc^2155. The protocol:
(§1) ITC was performed using TA Nano ITC. MftR was loaded in the sample cell at the concentration of 16 and 250 μM acyl-CoAs (C12–C18) loaded in the syringe. To minimize the effect of buffer mismatch, the stock concentration of acyl-CoAs was prepared using ITC buffer (50 mM Hepes, 50 mM NaCl, and pH 7.5), and the pH was adjusted to within 0.05 units. In addition, MftR was buffer exchanged into ITC buffer using a PD-10 column (GE Life Sciences). The volume of the titrant added at each injection into the sample cell was 2.22 μl. The time interval between the successive injections was 180 s. The temperature of the cell was kept at 25 °C. The data obtained were fit by independent one-site model using NanoAnalyze Data Analysis, version 3.8.0, that was provided with the instrument.

Another test deals with MftR L120R (Mycolicibacterium smegmatis, UniProt A0QSB5, L120R). The test can be described thus: ITC binding of oleoyl-CoA to MftR variant. On the set-up: species or system Mycobacterium smegmatis mc^2155. The protocol:
(§2) Finally, we examined the effects of mutations at the interface of the DNA-binding and effector-binding domains. Here, residues Leu120 and Met127 were mutated to arginine and alanine, respectively, and the Kds for oleoyl-CoA and Omft were measured as described previously.
(§3) Mutant strand synthesis reactions were performed according to the Agilent QuikChange site-directed mutagenesis protocol. The mftR_pET28a plasmid was used as a template for site-directed mutagenesis studies. Sequence-verified plasmids were transformed into E. coli BL21(DE3) pLysS cells for protein production and purified using the same protocol as wildtype MftR.
as §1, with “The data obtained were fit by independent one-site model using NanoAnalyze Data Analysis, version 3.8.0, that was provided with the instrument.” left out

A further test has as its target MftR M127A (Mycolicibacterium smegmatis, UniProt A0QSB5, M127A). Description: ITC binding of oleoyl-CoA to MftR variant. Details: species or system Mycobacterium smegmatis mc^2155. The protocol: as §2, §3
as §1, with “The data obtained were fit by independent one-site model using NanoAnalyze Data Analysis, version 3.8.0, that was provided with the instrument.” left out

The next test deals with MftR–Omft complex. Description: Competitive EMSA screen for effectors of MftR. It counts as binding, Mycobacterium smegmatis mc^2155. To be noted: 6-FAM Omft 0.5 μM, MftR 5 μM, effectors 100 μM. The protocol: Next, we assessed which metabolites activate MftR and thus could induce MFT production. To do so, we carried out competitive EMSAs where FAM-labeled Omft and MftR were incubated in the presence of potential effectors. We initially chose our effectors based on cholesterol catabolism, a process that putatively includes MFT biosynthetic genes ([38]). […] Knowing that TFRs have a propensity to be activated by fatty acyl-CoAs ([20]), we expanded our effector screening to include short-chain, medium-chain, and long-chain acyl-CoAs.
Figure 4 Effectors of MftR.A, an EMSA used to screen effectors of MftR. The 6-FAM–labeled Omft region (0.5 μM) was incubated with the MftR (5 μM) in the absence or the presence of effectors (100 μM). Protein–DNA complexes were separated by electrophoresis on 5% polyacrylamide gel. […] B, a representative isothermal titration calorimetry thermogram for the binding of the oleoyl-CoA to MftR regulator (blue) and the control of oleoyl-CoA into buffer (red). Each peak corresponds to the injection of 2.22 μl of 250 μM oleoyl-CoA into the cell containing 16 μM MftR or buffer. The integrated thermogram (blue dots) was fitted to a single-site binding model (black line) to determine the Kd. […] C, a bar graph depicting the ITC measured Kds for various acyl-CoAs. Bars represent the mean of three independent experiments, and the error bars represent the standard deviation of the experiments. 6-FAM, 6-carboxyfluorescein; ITC, isothermal titration calorimetry; Omft, mft operator.
His-tagged MftR was used to assess the protein binding to Pmft–MftA promoter fragment. DNA was mixed with increasing concentrations of the MftR protein in the reaction buffer (50 mM Hepes, 50 mM NaCl 0.1 mM EDTA, and pH 7.5) and incubated at room temperature for 10 min. The reactions were resolved by electrophoresis on a 5% (v/v) nondenaturing polyacrylamide gel in 1× Tris/borate/EDTA buffer at 200 V for 20 min on ice. Prior to the analysis, the gel was prerun for 30 min at 150 V on ice. Results were visualized by GelRed and recorded using Azure Biosystems 600 imaging system.

A further test concerns MftR H68A–Omft complex. Description: Competitive EMSA with H68A mutant and oleoyl-CoA. It is filed as binding, Mycobacterium smegmatis mc^2155. The settings on record: up to 100 μM oleoyl-CoA. An excerpt:
(§4) Next, we examined which amino acid residues contribute to the interaction between MftR and oleoyl-CoA. The crystal structure of Msmeg MftR is currently unavailable; however, an unpublished structure of Rhodococcus jostii RHA1 MftR has been deposited in the Protein Data Bank (PDB) (PDB ID: 2RAE, 54% identical, Fig. S3). Using this structure, we employed SwissDock to model oleoyl-CoA bound to MftR (Fig. 5) ([41], [42]). From the docked structure, we identified eight conserved residues on MftR that were expected to create the acyl-binding pocket or bind CoA through electrostatic interactions. Following single amino acid replacements of the residues, we measured the Kd values of the mutant proteins to oleoyl-CoA using ITC. For the putative acyl-binding pocket residues Phe65, Phe96, and Ile114, mutations to alanine led to no or modest change to the Kd for oleoyl-CoA (Table 1). […] Conversely, when His68 was mutated to alanine, binding of oleoyl-CoA by the protein was undetectable. To validate this observation, competitive EMSAs were carried out using the H68A mutant. […] Thus, it is highly likely that His68 is an important residue for oleoyl-CoA binding. To evaluate residues that were expected to interact with CoA, Gln15, Asp16, Ser67, and Asp66 were targeted. Of these, mutants of Asp16 and Ser67 had the greatest effect (Table 1). […]
In general terms: Mobility shift assays separate free from complexed probe on a gel.

For another test, the system named is MftR D16R–Omft complex. Description: Competitive EMSA with D16R mutant and oleoyl-CoA. The settings on record: up to 100 μM oleoyl-CoA. It counts as binding, Mycobacterium smegmatis mc^2155.
Source text: as §4

MftR (WT), sequence (A0QSB5 entry or part of it): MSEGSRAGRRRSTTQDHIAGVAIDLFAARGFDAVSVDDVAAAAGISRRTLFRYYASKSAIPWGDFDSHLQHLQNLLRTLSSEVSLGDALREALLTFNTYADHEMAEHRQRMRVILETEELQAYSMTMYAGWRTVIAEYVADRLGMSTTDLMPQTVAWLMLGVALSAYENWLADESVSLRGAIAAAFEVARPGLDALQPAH
MftR L120R, sequence (A0QSB5 entry or part of it L120R): as the sequence (A0QSB5 entry or part of it) above
MftR M127A, sequence (A0QSB5 entry or part of it M127A): as the sequence (A0QSB5 entry or part of it) above

For `CCCCCCCC/C=C\CCCCCCCC(=O)SCCNC(=O)CCNC(=O)[C@H](O)C(C)(C)COP(=O)(O)OP(=O)(O)OC[C@H]1O[C@@H](n2cnc3c(N)ncnc32)[C@H](O)[C@@H]1OP(=O)(O)O` [oleoyl-CoA], the Kd at MftR (WT) came to 1.4 ± 0.1 µM; at MftR L120R, 6.2 ± 0.2 µM; on MftR M127A, 4.8 ± 0.1 µM. The “number of binding sites” value on MftR (WT) (ITC, WT MftR, one-site model) is given as ~0.6 sites per monomer MftR. The “disruption of the MftR–Omft complex (DNA release)” value in the test with MftR–Omft complex is “disrupted the MftR–Omft complex”. The “release of Omft from H68A mutant” value in the test on MftR H68A–Omft complex is reported as “remained bound to Omft”. Also, the “release of Omft from D16R mutant” value in the test with MftR D16R–Omft complex was “remained bound to Omft”.

Usually Kd stands for the constant that tells how readily two partners part at equilibrium. A lower Kd goes with tighter binding.
